Measured values taken from ChEMBL document CHEMBL1926672, “New 5-benzylidenethiazolidin-4-one inhibitors of bacterial MurD ligase: design, synthesis, crystal structures, and biological evaluation” (Eur J Med Chem, 2011).
Converted amounts (≈) assume the structure as drawn.

Assays:
Pseudomonas aeruginosa = experiment: Antibacterial activity against Pseudomonas aeruginosa […] after 18 to 24 hrs by macrodilution technique; assay type: functional
Staphylococcus aureus = experiment: Antibacterial activity against Staphylococcus aureus ATCC 29213 after 18 to 24 hrs by macrodilution technique; assay type: functional
Escherichia coli [1] = experiment: Antibacterial activity against Escherichia coli ATCC 25922 after 18 to 24 hrs by macrodilution technique; assay type: functional
Enterococcus faecalis = experiment: Antibacterial activity against Enterococcus faecalis ATCC 29212 after 18 to 24 hrs by macrodilution technique; assay type: functional
[2] = Inhibition of Escherichia coli MurD ligase assessed as addition of D-[14C]glu to UDP-N-acetyl-muramoyl-L-alanine after 30 mins by radioactivity assay
Escherichia coli [3] = experiment: Inhibition of Escherichia coli MurD ligase assessed as residual activity at 500 uM after 15 mins using UDP-MurNAc-L-Ala substrate by malachite green colorimetric method
[4] = Inhibition of Escherichia coli MurD ligase assessed as residual activity after 15 mins using UDP-MurNAc-L-Ala substrate by malachite green colorimetric method
Escherichia coli [5] = experiment: Inhibition of Escherichia coli MurD ligase assessed as residual activity at 250 uM after 15 mins using UDP-MurNAc-L-Ala substrate by malachite green colorimetric method

In the case of `O=C(O)CC[C@@H](NC(=O)c1ccc(COc2ccc(/C=C3\SC(=S)NC3=O)cc2OCC(=O)O)cc1)C(=O)O`, the MBC (Pseudomonas aeruginosa) is reported as > 128 µg/mL, the MIC (Pseudomonas aeruginosa) is reported as > 128 µg/mL and the MBC (Staphylococcus aureus) is reported as > 128 µg/mL. For the same compound, the MIC (Staphylococcus aureus) was 128 µg/mL (≈ 223 µM), the MBC (Escherichia coli [1]) was > 128 µg/mL and the MIC (Escherichia coli [1]) was > 128 µg/mL. For the same compound, the MBC (Enterococcus faecalis) was > 128 µg/mL, the MIC (Enterococcus faecalis) was 128 µg/mL (≈ 223 µM) and the IC50 [2] was 34 µM.
With `O=C(O)CC[C@@H](NC(=O)c1ccc(COc2cccc(/C=C3\SC(=O)NC3=O)c2)cc1)C(=O)O` the Activity (Escherichia coli [3]) was 79%.
`O=C(O)CC[C@@H](NC(=O)c1cccc(COc2ccc(/C=C3\SC(=S)NC3=O)cc2)c1)C(=O)O` showed an IC50 [4] of 76 µM.
With `O=C(O)CC[C@@H](NS(=O)(=O)c1ccc(COc2cccc(/C=C3\SC(=S)NC3=O)c2)cc1)C(=O)O` the MBC (Pseudomonas aeruginosa) was > 128 µg/mL, the MIC (Pseudomonas aeruginosa) was > 128 µg/mL and the MBC (Staphylococcus aureus) was > 128 µg/mL. For the same compound, the MIC (Staphylococcus aureus) was > 128 µg/mL, the MBC (Escherichia coli [1]) was > 128 µg/mL and the MIC (Escherichia coli [1]) was > 128 µg/mL. The MBC (Enterococcus faecalis) was > 128 µg/mL, the MIC (Enterococcus faecalis) was > 128 µg/mL and the IC50 [2] was 45 µM.
Work on `O=C(O)CC[C@@H](NC(=O)c1cccc(COc2ccc(Cn3ccc(=O)[nH]c3=O)cc2)c1)C(=O)O` yielded an Activity (Escherichia coli [3]) of 86%.
In the case of `O=C(O)CC[C@@H](NS(=O)(=O)c1ccc(COc2cccc(/C=C3\SC(=O)NC3=O)c2)cc1)C(=O)O`, the Activity (Escherichia coli [5]) is reported as 71%.
`O=C(O)CC[C@@H](NS(=O)(=O)c1ccc(COc2ccc(/C=C3\SC(=S)NC3=O)cc2)cc1)C(=O)O` showed an IC50 [2] of 120 µM.
With `O=C(O)CC[C@@H](NC(=O)c1cccc(COc2ccc(/C=C3\SC(=O)NC3=O)cc2)c1)C(=O)O` the IC50 [4] was 128 µM.
With `O=C(O)CC[C@@H](NC(=O)c1cccc(COc2cccc(/C=C3\SC(=O)NC3=O)c2)c1)C(=O)O` the Activity (Escherichia coli [3]) was 65%.
In the case of `O=C(O)CC[C@@H](NS(=O)(=O)c1ccc(COc2ccc(/C=C3\SC(=S)NC3=O)cc2OCC(=O)O)cc1)C(=O)O`, the IC50 [4] is reported as 472 µM.
Work on `O=C(O)CC[C@@H](NS(=O)(=O)c1ccc(COc2ccc(/C=C3\SC(=O)NC3=O)cc2OCC(=O)O)cc1)C(=O)O` yielded an IC50 [4] of 814 µM.
With `O=C(O)CC[C@@H](NC(=O)c1ccc(COc2ccc(Cn3ccc(=O)[nH]c3=O)cc2)cc1)C(=O)O` the Activity (Escherichia coli [3]) was 85%.
In the case of `O=C(O)CC[C@@H](NC(=O)c1ccc(COc2cccc(/C=C3\SC(=S)NC3=O)c2)cc1)C(=O)O`, the MBC (Pseudomonas aeruginosa) is reported as > 128 µg/mL, the MIC (Pseudomonas aeruginosa) is reported as > 128 µg/mL and the MBC (Staphylococcus aureus) is reported as > 128 µg/mL. For the same compound, the MIC (Staphylococcus aureus) was > 128 µg/mL, the MBC (Escherichia coli [1]) was > 128 µg/mL and the MIC (Escherichia coli [1]) was > 128 µg/mL. The MBC (Enterococcus faecalis) was > 128 µg/mL, the MIC (Enterococcus faecalis) was > 128 µg/mL and the IC50 [2] was 28 µM.
Work on `O=C(O)CC[C@@H](NC(=O)c1cccc(CNc2ccc(/C=C3\SC(=S)NC3=O)cc2)c1)C(=O)O` yielded an IC50 [2] of 45 µM.
Work on `O=C(O)CC[C@@H](NC(=O)c1cccc(COc2cccc(/C=C3\SC(=S)NC3=O)c2)c1)C(=O)O` yielded an IC50 [2] of 47 µM.
In the case of `O=C(O)CC[C@@H](NC(=O)c1ccc(COc2ccc(/C=C3\SC(=O)NC3=O)cc2OCC(=O)O)cc1)C(=O)O`, the Activity (Escherichia coli [3]) is reported as 86%.
